We go through 78 compounds from the Kinase Knowledgebase extract (Sharma et al. 2016).

For the test, the target named is PIK3CB;PIK3CG;PIK3CD;PIK3CA (human) (UniProt P48736). The experiment in a line: Enzyme Assay.

The term pIC50 denotes the negative decadic logarithm of the IC50, by convention in mol/L. Read a low pIC50 as a large IC50.

Molecules are shown by their SMILES. pIC50: −log10 of the molar value.

In the case of `CC(C)(CN1CCOCC1)c1ccc(-n2nc(C(=O)N3CCOCC3)c3c2-c2ccccc2S(=O)(=O)C3)cc1`, the pIC50 is 6.47.
As for `CC(C)(c1ccc(-n2nc(C(=O)N3CCOCC3)c3c2-c2ccccc2S(=O)(=O)C3)cc1)N1CCOCC1`, the pIC50 was 6.23.
Next, `O=C(c1nn(C2CCN(CCN3CCC(F)CC3)C2)c2c1CS(=O)(=O)c1ccccc1-2)N1CCOCC1` (stereo not drawn): 6.83; `CNc1cccc2c1S(=O)(=O)Cc1c(C(=O)N3CCOCC3)nn(-c3ccccc3)c1-2`: 5.45.
Next, `COCCNCc1ccc(-n2nc(C(=O)N3CCOCC3)c3c2-c2ccccc2S(=O)(=O)C3)cc1`: 6.79.
The figure for `CCC1c2c(C(=O)N3CCOCC3)nn(-c3ccccc3)c2-c2ccccc2S1(=O)=O` (stereo not drawn) is 5.61; for `O=C(c1nn(-c2ccc(Br)cc2)c2c1CS(=O)(=O)c1ccccc1-2)N1CCOCC1` it is 5.95; for `O=C(c1nn(C2CCCN(CCC3CCCCC3)C2)c2c1CS(=O)(=O)c1ccccc1-2)N1CCOCC1` (stereo not drawn) it is 6.81.
Compound `O=C(c1nn(-c2ccc(-c3ccccc3)cc2)c2c1CS(=O)(=O)c1ccccc1-2)N1CCOCC1` gave a pIC50 of 4.99.
The figure for `O=C(c1nn(C2CCN(CCN3CC[C@H](F)C3)C2)c2c1CS(=O)(=O)c1ccccc1-2)N1CCOCC1` (stereo partly drawn) is 6.72; for `COCCN1CCCC(n2nc(C(=O)N3CCOCC3)c3c2-c2ccccc2S(=O)(=O)C3)C1` (stereo not drawn) it is 6.73; for `Cc1nnc(-c2cccc(-n3nc(C(=O)N4CCOCC4)c4c3-c3ccccc3S(=O)(=O)C4)c2)o1` it is 5.92.
Next, `CC(C)CCN1CCCC(n2nc(C(=O)N3CCOCC3)c3c2-c2ccccc2S(=O)(=O)C3)C1` (stereo not drawn): 6.86; `O=C(c1nn(C2CCCN(C3CCOCC3)C2)c2c1CS(=O)(=O)c1ccccc1-2)N1CCOCC1` (stereo not drawn): 6.60.
Next, `O=C(c1nn([C@H]2CCCN(CCN3CC[C@@H](F)C3)C2)c2c1CS(=O)(=O)c1ccccc1-2)N1CCOCC1`: 7.49; `O=C(c1nn(-c2ccccc2)c2c1C(Cc1ccccc1)S(=O)(=O)c1ccccc1-2)N1CCOCC1` (stereo not drawn): 5.61.
On to `COc1ccc2c(c1)-c1c(c(C(=O)N3CCOCC3)nn1-c1ccccc1)CS2(=O)=O`, for which the pIC50 was 5.47.
On to `O=C(c1nn(C2CCCC(C(=O)N3CCCCC3)C2)c2c1CS(=O)(=O)c1ccccc1-2)N1CCOCC1` (stereo not drawn), for which the pIC50 was 6.44.
In the case of `CS(=O)(=O)c1ccc(-n2nc(C(=O)N3CCOCC3)c3c2-c2ccccc2S(=O)(=O)C3)cc1`, the negative logarithm of the IC50 (pIC50) was 5.34.
The figure for `O=C(c1nn(C2CCC(F)(F)CC2)c2c1CS(=O)(=O)c1ccccc1-2)N1CCOCC1` is 6.41.
The figure for `COc1ccc2c(c1)S(=O)(=O)Cc1c(C(=O)N3CCOCC3)nn([C@H]3CCCN(CC4CCOC4)C3)c1-2` (stereo partly drawn) is 7.36.
Regarding `O=C(c1nn(-c2ccc(C3(CN4CCOCC4)CC3)cc2)c2c1CS(=O)(=O)c1ccccc1-2)N1CCOCC1`, the pIC50 was 6.00.
The figure for `O=C(c1nn(C2CCN(CCn3cccn3)C2)c2c1CS(=O)(=O)c1ccccc1-2)N1CCOCC1` (stereo not drawn) is 6.59.
`CC1CN(Cc2ccc(-n3nc(C(=O)N4CCOCC4)c4c3-c3ccccc3S(=O)(=O)C4)cc2)CCO1` (stereo not drawn) gave a pIC50 of 6.98.
Next, `O=C(O)c1nn(-c2ccc(CN3CCOCC3)cc2)c2c1CS(=O)(=O)c1ccccc1-2`: 5.39; `NC(=O)c1cccc(-n2nc(C(=O)N3CCOCC3)c3c2-c2ccccc2S(=O)(=O)C3)c1`: 6.02; `O=C(CCN1CCC[C@H](n2nc(C(=O)N3CCOCC3)c3c2-c2ccccc2S(=O)(=O)C3)C1)N1CC(F)(F)C1`: 7.41.
Next, `Cn1cc(-n2nc(C(=O)N3CCOCC3)c3c2-c2ccccc2S(=O)(=O)C3)ccc1=O`: 5.53; `O=C(c1nn(N2CCOCC2)c2c1C(F)S(=O)(=O)c1ccccc1-2)N1CCOCC1` (stereo not drawn): 5.01.
Next, `O=C(c1nn(C2CCCN(CCN3CC(F)(F)C3)C2)c2c1CS(=O)(=O)c1ccccc1-2)N1CCOCC1` (stereo not drawn): 7.44; `O=C(c1nn(C2CCCN(CCC(C(F)(F)F)C(F)(F)F)C2)c2c1CS(=O)(=O)c1ccccc1-2)N1CCOCC1` (stereo not drawn): 6.17.
Take `O=C(c1nn([C@H]2CCCN(Cc3cccnc3)C2)c2c1CS(=O)(=O)c1ccccc1-2)N1CCOCC1`: the pIC50 is 7.07.
For the compound `O=C(c1nn(C2CCCN(CCN3CC(F)(F)C3)C2)c2c1CS(=O)(=O)c1c(F)cccc1-2)N1CCOCC1` (stereo not drawn), the pIC50 was 7.42.
`O=C(c1nn([C@H]2CCCN(CCC3CCOCC3)C2)c2c1CS(=O)(=O)c1ncccc1-2)N1CCOCC1` showed a pIC50 of 7.80.
Next, `O=C(c1nn(C2CCN(CCCl)C2)c2c1CS(=O)(=O)c1ccccc1-2)N1CCOCC1` (stereo not drawn): 6.52.
Next, `O=C(c1nn(Cc2ccccc2)c2c1CS(=O)(=O)c1ccccc1-2)N1CCOCC1`: 5.92; `O=C(c1nc(-c2ccccc2)n2c1CS(=O)(=O)c1ccccc1-2)N1CCOCC1`: 5.56.
Next, `CN1CCCC1CCn1nc(C(=O)N2CCOCC2)c2c1-c1ccccc1S(=O)(=O)C2` (stereo not drawn): 5.91; `O=C(c1ccoc1)N1CCC[C@H](n2nc(C(=O)N3CCOCC3)c3c2-c2ccccc2S(=O)(=O)C3)C1`: 6.12.
`COC(=O)c1ccc(Cn2nc(C(=O)N3CCOCC3)c3c2-c2ccccc2S(=O)(=O)C3)o1` showed a negative-log IC50 (pIC50) of 6.37.
Next, `Cc1ccc(F)cc1-n1nc(C(=O)N2CCOCC2)c2c1-c1ccccc1S(=O)(=O)C2`: 5.38; `O=C(c1nn(C2CCCC(C(=O)N3CCOCC3)C2)c2c1CS(=O)(=O)c1ccccc1-2)N1CCOCC1` (stereo not drawn): 6.38; `O=C(c1nn(Cc2cnccn2)c2c1CS(=O)(=O)c1ccccc1-2)N1CCOCC1`: 4.97.
Next, `O=C(c1nn(-c2ccc(CN3CCC(F)CC3)nc2)c2c1CS(=O)(=O)c1ccccc1-2)N1CCOCC1`: 5.92.
`O=C(c1nn(-c2cccc(-c3cnn(CCN4CCOCC4)c3)c2)c2c1CS(=O)(=O)c1ccccc1-2)N1CCOCC1` had a pIC50 of 6.47.
In turn, `O=C(c1nn(C2CCN(CCC3CCOCC3)CC2)c2c1CS(=O)(=O)c1ccccc1-2)N1CCOCC1` gave a pIC50 of 6.16.
Next, `O=C(c1nn(C2CCCN(CC3CCOC3)C2)c2c1CS(=O)(=O)c1ccccc1-2)N1CCOCC1` (stereo not drawn): 7.01; `CN(C)CC(C)(C)c1ccc(-n2nc(C(=O)N3CCOCC3)c3c2-c2ccccc2S(=O)(=O)C3)cc1`: 6.80.
Next, `COC1CCN(CCN2CCC[C@H](n3nc(C(=O)N4CCOCC4)c4c3-c3ccc(F)cc3S(=O)(=O)C4)C2)CC1`: 7.89; `O=C(c1nn(CCc2ccccc2)c2c1CS(=O)(=O)c1ccccc1-2)N1CCOCC1`: 5.84.
Next, `O=C(c1nn(-c2ccccc2)c2c1CS(=O)(=O)c1ccc(Br)cc1-2)N1CCOCC1`: 5.89; `O=C(c1nn(-c2ccccc2)c2c1CS(=O)(=O)c1c(Br)cccc1-2)N1CCOCC1`: 6.31; `O=C(c1nn(C2CCCN(CCN3CCOCC3)C2)c2c1CS(=O)(=O)c1c(F)cccc1-2)N1CCOCC1` (stereo not drawn): 7.80.
Consider `CN(C)CCn1nc(C(=O)N2CCOCC2)c2c1-c1ccccc1S(=O)(=O)C2`, for which the pIC50 was 5.82.
The figure for `CS(=O)(=O)C1CCC(n2nc(C(=O)N3CCOCC3)c3c2-c2ccccc2S(=O)(=O)C3)CC1` (stereo not drawn) is 5.68.
Next, `O=C(c1nn(Cc2cc(Cl)cs2)c2c1CS(=O)(=O)c1ccccc1-2)N1CCOCC1`: 6.20.
For `COC1CCN(Cc2ccc(-n3nc(C(=O)N4CCOCC4)c4c3-c3ccccc3S(=O)(=O)C4)cc2)CC1`, the pIC50 is 6.60.
The figure for `O=C1CCCN1CCN1CCC[C@H](n2nc(C(=O)N3CCOCC3)c3c2-c2ccccc2S(=O)(=O)C3)C1` is 7.10.
Next, `O=C(c1nn([C@H]2CCCN(c3cccnc3)C2)c2c1CS(=O)(=O)c1ccccc1-2)N1CCOCC1`: 7.32.
The figure for `CS(=O)(=O)Nc1ccc2c(c1)-c1c(c(C(=O)N3CCOCC3)nn1-c1ccccc1)CS2(=O)=O` is 5.88; for `CS(=O)(=O)C1CCN(Cc2cccc(-n3nc(C(=O)N4CCOCC4)c4c3-c3ccccc3S(=O)(=O)C4)c2)C1` (stereo not drawn) it is 6.33.
`O=C(c1nn(C2CCCN(CCC(F)(F)F)C2)c2c1CS(=O)(=O)c1ccccc1-2)N1CCOCC1` (stereo not drawn) gave a pIC50 of 6.83.
The figure for `CS(=O)(=O)N1CCCC(n2nc(C(=O)N3CCOCC3)c3c2-c2ccccc2S(=O)(=O)C3)C1` (stereo not drawn) is 6.00; for `O=C(CC1CCCCC1)N1CCC[C@H](n2nc(C(=O)N3CCOCC3)c3c2-c2ccccc2S(=O)(=O)C3)C1` it is 6.13; for `CCCn1nc(C(=O)N2CCOCC2)c2c1-c1ccccc1S(=O)(=O)C2` it is 6.19.
Next, `COc1ccc2c(c1)S(=O)(=O)Cc1c(C(=O)N3CCOCC3)nn([C@H]3CCCN(CCC4CCOCC4)C3)c1-2`: 7.57.
The figure for `O=C(c1nn([C@H]2CCCN(C3CCOCC3)CC2)c2c1CS(=O)(=O)c1ccccc1-2)N1CCOCC1` is 6.47.
As to `O=C(c1nn(-c2cccc(Cl)c2)c2c1CS(=O)(=O)c1ccccc1-2)N1CCOCC1`, the pIC50 was 6.36.
As to `O=C(c1nn([C@H]2CCCN(CCN3CC(F)(F)C3)C2)c2c1CS(=O)(=O)c1c(F)cccc1-2)N1CCOCC1`, the pIC50 was 7.66.
Next, `COC1CCN(Cc2cccc(-n3nc(C(=O)N4CCOCC4)c4c3-c3ccccc3S(=O)(=O)C4)c2)CC1`: 6.62; `O=C(c1nn(-c2cccc(CN3CC(F)(F)C3)c2)c2c1CS(=O)(=O)c1ccccc1-2)N1CCOCC1`: 6.19.
The figure for `O=C(c1nn(-c2ccc(CO)cc2)c2c1CS(=O)(=O)c1ccccc1-2)N1CCOCC1` is 5.97; for `CC(=O)Nc1nc2c(s1)S(=O)(=O)Cc1c(C(=O)N3CCOCC3)nn(C3CCOCC3)c1-2` it is 6.55.
Next, `Cn1nc(C(=O)N2CCOCC2)c2c1-c1cccc(Br)c1S(=O)(=O)C2`: 5.96; `COC1CN(CCN2CCC[C@H](n3nc(C(=O)N4CCOCC4)c4c3-c3ccccc3S(=O)(=O)C4)C2)C1`: 7.70; `O=C(c1nn(-c2cccc(N3CCOCC3)c2)c2c1CS(=O)(=O)c1ccccc1-2)N1CCOCC1`: 6.17.
Consider `O=C(c1nn([C@H]2CCCN(Cc3ccncc3)C2)c2c1CS(=O)(=O)c1ccccc1-2)N1CCOCC1`, for which the pIC50 was 7.35.
Next, `O=C(c1nn(CC2CCOCC2)c2c1CS(=O)(=O)c1ccccc1-2)N1CCOCC1`: 6.10.
